Results taken from the OPERA property sets (Mansouri et al. 2018).

Details: not given

Compared with `CCCc1cccs1`, `CCCCCCc1ccc2ccccc2c1` is higher in boiling point: 158 °C for the first, 324 °C for the second.

Compared with `Cc1c(C)c(C)c(C)c(C)c1C`, `Cc1cc(C)c(Br)c(C)c1Br` is higher in boiling point: 263 °C for the first, 285 °C for the second.

First: Cc1ccc(C=O)o1
Second: Cc1ccc(Cl)c(O)c1Cl
The boiling point of the first is lower: 187 °C for the first, 237 °C for the second.

Going from `C=COCCCC` to `CCCCCC(C)N` (stereo not given), the boiling point rises from 94 °C to 142 °C.

First: N#Cc1c(F)c(F)c(F)c(F)c1F
Second: O=C(Cl)C(F)(F)C(F)(F)C(F)(F)F
The boiling point of the first is higher: 162 °C for the first, 38.5 °C for the second.

Going from `CCC(Br)C(=O)OC` (stereo not given) to `CCOC(=O)C(Br)(Br)Br`, the boiling point rises from 168 °C to 225 °C.

Compared with `Clc1ccncc1`, `ClCc1ccc(Cl)cc1` is higher in boiling point: 148 °C for the first, 223 °C for the second.

First: ClC1CCCC1
Second: CC1CCC(C)C1=O (stereo not given)
The boiling point of the first is lower: 114 °C for the first, 146 °C for the second.

Compared with `C=CCCC(C)(C)C`, `C/C=C\CC(C)(C)C` is higher in boiling point: 104 °C for the first, 107 °C for the second.

Going from `COCC(O)CO` (stereo not given) to `CCCC(Cl)Cl`, the boiling point falls from 220 °C to 114 °C.

Compared with `O=C=Nc1ccc(N=C=O)cc1`, `c1ccc2[nH]ccc2c1` is lower in boiling point: 260 °C for the first, 254 °C for the second.

First: COc1cccc(OC)c1
Second: COC(=O)c1ccoc1
The boiling point of the first is higher: 218 °C for the first, 160 °C for the second.

Compared with `c1ccc(-c2ccccc2)cc1`, `Cc1cn[nH]c1` is lower in boiling point: 256 °C for the first, 206 °C for the second.

Compared with `O=C(C(Cl)Cl)C(Cl)Cl`, `FC(Cl)Cl` is lower in boiling point: 183 °C for the first, 8.9 °C for the second.

First: CN(C)CCN(C)C
Second: CC(C)OC(OC(C)C)OC(C)C
The boiling point of the first is lower: 121 °C for the first, 167 °C for the second.

First: CCCCCCCNCCCCCCC
Second: CCCC(C=O)CCC
The boiling point of the first is higher: 271 °C for the first, 160 °C for the second.

Molecule `CN1CCCC1=O` has a boiling point of 202 °C.

Going from `Cc1c(C)c(C)c(C)c(C)c1C` to `Clc1ccc(Cl)c(-c2c(Cl)cccc2Cl)c1Cl`, the log10 Koa rises from 6.31 to 8.53.

In the case of `c1ccc(-c2ccccc2)cc1`, the log10 Koa is reported as 6.15.

First: Cc1c(C)c(C)c(C)c(C)c1C
Second: CCNc1nc(NC(C)(C)C)nc(SC)n1
The log10 vapour pressure (mmHg) of the first is higher: -3.07 for the first, -5.77 for the second.

Going from `C=COCCCC` to `CCCC(Cl)Cl`, the log10 vapour pressure (mmHg) falls from 1.69 to 1.36.

Going from `CCN(CC)c1ccc(/N=N/c2ccccc2)cc1` to `c1ccc(-c2ccccc2)cc1`, the log10 vapour pressure (mmHg) rises from -7.07 to -2.05.

First: N#Cc1sc2c(=O)c3ccccc3c(=O)c=2sc1C#N
Second: c1ccc2[nH]ccc2c1
The log10 vapour pressure (mmHg) of the first is lower: -10.7 for the first, -1.91 for the second.

First: CN1CCCC1=O
Second: FC(Cl)Cl
The log10 vapour pressure (mmHg) of the first is lower: -0.462 for the first, 3.13 for the second.

Going from `Cc1c(C)c(C)c(C)c(C)c1C` to `Cc1cc(C)c(Br)c(C)c1Br`, the melting point falls from 166 °C to 65.5 °C.

First: CN1CCC(N(Cc2cccs2)c2ccccc2)CC1
Second: CCN(CC)c1ccc(/N=N/c2ccccc2)cc1
The melting point of the first is lower: 96 °C for the first, 97.5 °C for the second.

Going from `C=COCCCC` to `CCCCCCCNCCCCCCC`, the melting point rises from -92 °C to 31.5 °C.

Going from `N#Cc1c(F)c(F)c(F)c(F)c1F` to `N#Cc1sc2c(=O)c3ccccc3c(=O)c=2sc1C#N`, the melting point rises from 2.4 °C to 225 °C.

Compared with `Clc1ccncc1`, `ClCc1ccc(Cl)cc1` is higher in melting point: -43.5 °C for the first, 31 °C for the second.

First: Cc1ccc(Cl)c(O)c1Cl
Second: CC(=O)c1ccc(Cl)s1
The melting point of the first is lower: 28 °C for the first, 52 °C for the second.

First: O=C=Nc1ccc(N=C=O)cc1
Second: c1ccc2[nH]ccc2c1
The melting point of the first is higher: 97.5 °C for the first, 52.5 °C for the second.

Going from `CN1CC[C@]23CCCC[C@H]2[C@H]1Cc1ccc(O)cc13` to `Cc1c([C@H](C)[C@@H]2NC[C@@H](C)C[C@H]2O)ccc2c1C[C@H]1[C@H]2CC=C2C[C@@H](O)CC[C@@]21C`, the melting point rises from 198 °C to 206 °C.

Compared with `CC(C(=O)O)c1ccc(-c2ccccc2)c(F)c1` (stereo not given), `C#CCN1C(=O)CN=C(c2ccccc2)c2cc(Cl)ccc21` is higher in melting point: 110 °C for the first, 141 °C for the second.

First: NC1=NCC(c2ccccc2)O1 (stereo not given)
Second: c1ccc(C2=NNCC2)cc1
The melting point of the first is higher: 136 °C for the first, 45.8 °C for the second.

Going from `O=C(O)CCI` to `COC(=O)NN`, the melting point falls from 81.5 °C to 73 °C.

First: COc1cccc(OC)c1
Second: COc1ccc(-c2ccc(OC)cc2)cc1
The melting point of the first is lower: -52 °C for the first, 175 °C for the second.

Going from `CC(=C(CCO)SSC(CCO)=C(C)N(C=O)Cc1cnc(C)nc1N)N(C=O)Cc1cnc(C)nc1N` to `CNC(=C[N+](=O)[O-])NCCSCc1ccc(CN(C)C)o1`, the melting point falls from 177 °C to 69.5 °C.

First: O=c1oc2ccccc2c(O)c1Cc1c(O)c2ccccc2oc1=O
Second: O=C1CN=C(c2ccccc2)c2cc(Cl)ccc2N1CC(F)(F)F
The melting point of the first is higher: 290 °C for the first, 165 °C for the second.

Compared with `O=C(Nc1ccc(Oc2ccc(Cl)cc2)c(Cl)c1)c1cc(I)cc(I)c1O`, `Cc1nnc2n1-c1sc(Br)cc1C(c1ccccc1Cl)=NC2` is higher in melting point: 169 °C for the first, 213 °C for the second.

Going from `CN(C)CCN(C)C` to `CCNc1nc(NC(C)(C)C)nc(SC)n1`, the melting point rises from -55 °C to 104 °C.

Going from `CCCCCCc1ccc2ccccc2c1` to `NCCc1c[nH]c2ccccc12`, the melting point rises from -3 °C to 118 °C.

Going from `NCCCCCCCCCCN` to `Nc1cc(S(N)(=O)=O)ccc1S(=O)(=O)CCCO`, the melting point rises from 62.5 °C to 137 °C.

First: CN1CCCC1=O
Second: O=C1CCCC(=O)N1
The melting point of the first is lower: -24 °C for the first, 156 °C for the second.

For `FC(Cl)Cl`, the melting point was -135 °C.

`C#CC(C)(C)NC(=O)c1ccc(C(C)C)cc1` and `NC(=O)Nc1cccc(Br)c1` are within 0.2 log units of each other in log10 Koc (L/kg): 2.17 for the first, 2.12 for the second.

Compared with `C[N+]1(C)CCCCC1`, `CCNc1nc(NC(C)(C)C)nc(SC)n1` is lower in log10 Koc (L/kg): 6 for the first, 2.85 for the second.

In the case of `c1ccc(-c2ccccc2)cc1`, the log10 Koc (L/kg) is reported as 3.27.

For `COc1cccc(OC)c1`, the ready biodegradability was “readily biodegradable”.
For `N#Cc1sc2c(=O)c3ccccc3c(=O)c=2sc1C#N`, the ready biodegradability was “not readily biodegradable”.
For `c1ccc(-c2ccccc2)cc1`, the ready biodegradability was “readily biodegradable”.
With `c1ccc2[nH]ccc2c1` the ready biodegradability was “readily biodegradable”.
In the case of `CN1CCCC1=O`, the ready biodegradability is reported as “readily biodegradable”.
With `Nc1ccc2c(S(=O)(=O)O)cccc2c1S(=O)(=O)O` the ready biodegradability was “not readily biodegradable”.
For `CCNc1nc(NC(C)(C)C)nc(SC)n1`, the ready biodegradability was “not readily biodegradable”.

First: c1ccc(-c2ccccc2)cc1
Second: CN1CCCC1=O
The log10 Henry constant (atm·m³/mol) of the first is higher: -3.51 for the first, -8.49 for the second.

In the case of `c1ccc(-c2ccccc2)cc1`, the log10 biodegradation half-life (days) is reported as 1.49.

Same assay, conditions: fish

First: Clc1cc(Cl)c(-c2ccc(Cl)c(Cl)c2Cl)cc1Cl
Second: Clc1cc2c(c(Cl)c1Cl)Oc1c(Cl)c(Cl)c(Cl)c(Cl)c1O2
The log10 biotransformation half-life (days) of the first is higher: 2.59 for the first, 1.21 for the second.

Going from `CCC(C)(NC(=O)c1cc(Cl)c(C)c(Cl)c1)C(=O)CCl` (stereo not given) to `CC1(C)[C@H](C(=O)O[C@@H](C#N)c2cccc(Oc3ccccc3)c2)[C@@H]1C=C(Cl)Cl` (single isomer, unassigned), the log10 biotransformation half-life (days) rises from 0.16 to 0.7.

First: CC(C)(OOC(C)(C)c1ccccc1)c1ccccc1
Second: ClC1=C(Cl)[C@]2(Cl)[C@H]3[C@H]([C@@H]4C=C[C@H]3C4)[C@@]1(Cl)C2(Cl)Cl (racemic)
The log10 biotransformation half-life (days) of the first is lower: -0.01 for the first, 1.37 for the second.

`CC(C)(OOC(C)(C)c1ccccc1)c1ccccc1` and `c1ccc(-c2ccccc2)cc1` are within 0.2 log units of each other in log10 BCF: 2.62 for the first, 2.64 for the second.

`Clc1cc2c(c(Cl)c1Cl)Oc1c(Cl)c(Cl)c(Cl)c(Cl)c1O2` and `ClC1=C(Cl)[C@]2(Cl)[C@H]3[C@H]([C@@H]4C=C[C@H]3C4)[C@@]1(Cl)C2(Cl)Cl` (racemic) are within 0.2 log units of each other in log10 BCF: 3.67 for the first, 3.74 for the second.
